This is an account of results in patent publication US11046660B2, “Compounds and their use as PDE4 activators” (MIRONID LIMITED, priority 2016, dated 2021).

The target of one test is T1, full-length human PDE4B1 (Homo sapiens, UniProt Q07343).
T1 construct: stably expressed the full-length human PDE4D5, PDE4A4 and PDE4B1 long isoforms; made in house; cytosol fraction of cell lysate
Put plainly: PDE4B1 long form enzyme activation radio-assay (Experiment 1, Protocol A or B). In kind it is biochemical. To be noted: Protocol B, mean % increase in counts over basal activity. The source says:
(§1) Experiment 1: Identification of PDE4 Long Form Activators of the Present Invention Using Full-Length Human PDE4 Isoforms PDE4D5, PDE4A4, PDE4B1 and PDE4B2
(§2) HEK 293 cells were transfected with pDEST™ PDE4 expression vectors using Lipofectamine LTX/Plus reagent (Invitrogen) as outlined by the manufacturer and clonal isolates expanded to obtain cell lines that stably expressed the full-length human PDE4D5, PDE4A4 and PDE4B1 long isoforms and the full length human PDE4B2 short isoform. These were called the HEK-PDE4D5, HEK-PDE4A4, HEK-PDE4B1 and HEK-PDE4B2 cell lines, respectively.
(§3) HEK-PDE4D5 cells were seeded out in 100 mm plates and incubated at 37° C. in an atmosphere of 5% CO2, 95% air. Cell lysates were prepared using KHEM buffer [50 mM KCl, 10 mM EGTA, 50 mM HEPES (pH 7.2), 1.92 mM MgCl2].
(§4) To prepare the cell lysates, the 100 mm plates containing the cells were placed on ice and washed with ice-cold PBS (phosphate buffered saline, pH 7.4). KHEM buffer (500 μl) was added to the cells. Cells were then scraped off the plate and triturated using a needle (BD Microlance™ 0.8, 40 mm). The lysed cells were then centrifuged at 2000 rpm for 10 minutes to remove cell debris and the supernatant (cell lysate containing recombinant PDE4D5) was transferred to a fresh tube and kept on ice.
(§5) The cell lysate containing recombinant PDE4D5 was transferred into a centrifuge tube and placed into an ultracentrifuge (BECKMAN COULTER) and spun at high speed (100,000 g) for 30 minutes at 4° C. The cytosol fraction was then collected and its protein amount determined using a BCA protein assay.
(§6) PDE assays were performed using a final concentration of 10 mM Tris/5 mM MgCl2 and 1 μM [^3H]-cAMP (Perkin Elmer) plus PDE4D5 cell lysate cytosol fraction, containing over-expressed PDE4D5, with and without test compound. Incubations were performed at 30° C. for 5 minutes. The samples were then placed in a boiling water bath for 2 minutes to denature the PDE enzyme, and returned to ice. Samples were allowed to cool for 10 min after which snake venom 5′-nucleotidase (25 μl, 1 mg/ml; Sigma) was added. The tubes were vortexed and incubated in a water bath at 30° C. for 10 minutes, to attain conversion of [^3H]-5′-AMP to [^3H]-adenosine, and then placed on ice. Dowex ion exchange resin (Sigma) prepared as a 1:1 Dowex: water stock was thoroughly re-suspended and diluted 2:1 with ethanol. The resulting Dowex suspension (0.4 ml) was added to each tube. Tubes were vortexed to mix and then incubated on ice for at least 15 minutes before a final vortex. The Dowex resin was pelleted by centrifugation at 13,000 g at 4° C. for 3 minutes and 150 μl of the supernatant was removed to an Eppendorf tube containing 1 ml of ScintiSafe3 scintillation fluid (Fisher). Tubes were vortexed thoroughly to mix and the recovered [^3H]-adenosine was quantified by measuring counts over 1 minute in a scintillation counter.
(§7) The % increase in counts in the presence of test compound at a particular concentration indicates the % increase in enzyme activity at that concentration.
(§8) PDE assays were performed in thin walled V-bottomed 96-well plates. The assays were performed at a final concentration of 10 mM Tris/5 mM MgCl2 plus PDE4D5 cell lysate cytosol fraction, containing over-expressed PDE4D5, with and without test compound. The lysate/compound mix were incubated together for 15 min at room temperature on an orbital shaker prior to addition of [^3H] cAMP (final concentration 1 μM [^3H] cAMP; Perkin Elmer) to a final volume of 50 μl per reaction. The reactions were then incubated for 10 minutes at 30° C., terminated by heating for 2 min at 95° C. and allowed to cool. Snake venom (12.5 μl of 1 mg/ml; Crotalus atrox, Sigma) was then added and the plates were agitated and incubated for a further 15 minutes at 30° C. […]

A further test addresses T2, full-length human PDE4B2 (Homo sapiens, UniProt Q07343).
T2 construct: and the full length human PDE4B2 short isoform; made in house; cytosol fraction of cell lysate
Put plainly: PDE4B2 short form enzyme activation radio-assay (Experiment 1, Protocol A or B). The test is classed as biochemical. To be noted: 30 μM, mean % increase in counts over basal activity.
Description: as §1, §2, §3, §4, §5, §6, §7, §8

The target of a further test is T3, full-length human PDE4D5 (Homo sapiens, UniProt Q08499).
T3 construct: stably expressed the full-length human PDE4D5, PDE4A4 and PDE4B1 long isoforms; made in house; cytosol fraction of cell lysate
T3 sequence (Q08499 1-745 isoform Q08499-6): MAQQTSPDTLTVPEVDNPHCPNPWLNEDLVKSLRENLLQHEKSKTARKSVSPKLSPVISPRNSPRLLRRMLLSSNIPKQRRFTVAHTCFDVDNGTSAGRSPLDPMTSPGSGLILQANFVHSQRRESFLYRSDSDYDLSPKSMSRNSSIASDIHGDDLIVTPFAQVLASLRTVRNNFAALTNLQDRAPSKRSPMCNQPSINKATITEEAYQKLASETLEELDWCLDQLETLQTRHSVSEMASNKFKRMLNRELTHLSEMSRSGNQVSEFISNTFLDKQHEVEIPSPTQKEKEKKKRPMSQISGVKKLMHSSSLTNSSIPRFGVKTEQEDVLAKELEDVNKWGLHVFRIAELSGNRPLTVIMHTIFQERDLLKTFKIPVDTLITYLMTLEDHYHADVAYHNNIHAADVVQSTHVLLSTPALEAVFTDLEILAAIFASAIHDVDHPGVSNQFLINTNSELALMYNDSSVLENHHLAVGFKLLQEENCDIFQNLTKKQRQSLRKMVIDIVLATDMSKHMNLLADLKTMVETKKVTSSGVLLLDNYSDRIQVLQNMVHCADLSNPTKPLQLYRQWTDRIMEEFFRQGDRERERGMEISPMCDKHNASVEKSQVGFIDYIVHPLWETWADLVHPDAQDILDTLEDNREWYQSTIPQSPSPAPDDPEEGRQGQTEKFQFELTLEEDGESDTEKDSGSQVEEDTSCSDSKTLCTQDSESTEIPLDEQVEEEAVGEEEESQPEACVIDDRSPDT
In words: PDE4D5 long form enzyme activation radio-assay (Experiment 1, Protocol A or B). As to conditions: 30 μM, mean % increase in counts over basal activity. The test is classed as biochemical.
Description: as §1, §2, §3, §4, §5, §6, §7, §8

The test system of test [1] is MDCK cells. In words: Inhibition of in vitro cyst formation in 3D MDCK culture, PGE2-stimulated (Experiment 3, Protocol D). The test is classed as cell-based, canine. To be noted: 300 nM PGE2-stimulated, FIG. 3. The source says: In this study, the well-established three-dimensional (3D) MDCK cell model is used to investigate the effects of PDE4 long form activators on the formation of kidney cysts and evaluate their potential in the treatment of polycystic kidney diseases. 3D cysts are generated based on the method of Mao et al. (Mao, Z., Streets, A. J., Ong, A. C. M. Am. J. Physiol. Renal Physiol. 300(6): F1375-F1384, 2011), with some modifications.
Type 1 collagen (Invitrogen) is first prepared on ice by neutralising an acidic stock solution (3 mg/ml) with 17 mM NaOH and diluting it to 1 mg/ml with DMEM, supplemented with 2% (v/v) FBS, 2 mM L-glutamine, 1,000 U penicillin and 1,000 μg streptomycin (DMEM-2% FBS). […]
Phase-contrast images are obtained on the Motic microscope (×4 magnification). 8 images are taken per condition and the cyst diameter measured (up to 150 cyst measurements per well). Cyst spheroid volume is calculated using the formula 4/3πr^3 where r is the radius of the spheroid. A mean cyst volume is then calculated per well. The mean cyst volume and standard deviation between the duplicate wells is then calculated and expressed as a % Cyst Volume compared to the vehicle only (DMSO+300 nM PGE2) control wells.

The subject of test [2] is MDCK cells. Put plainly: Reduction of intracellular cAMP levels in forskolin-stimulated MDCK cells (Experiment 2). The test is classed as cell-based, canine. To be noted: compound 10 μM for 10 min prior to forskolin 10 μM for 2 min; FIG. 2. How it is done: MDCK cells were seeded at 100,000 cells per well, and left to adhere overnight. The cells were then treated with the test compound (10 μM) for 10 minutes, prior to stimulation with forskolin (10 μM, Sigma) for 2 minutes. Media was aspirated, and hydrochloric acid (0.1M) was added to lyse the cells. The cAMP assay (Enzo Life Sciences) was performed according to the manufacturer's instructions.

T2 sequence (Q07343 1-564 isoform Q07343-2): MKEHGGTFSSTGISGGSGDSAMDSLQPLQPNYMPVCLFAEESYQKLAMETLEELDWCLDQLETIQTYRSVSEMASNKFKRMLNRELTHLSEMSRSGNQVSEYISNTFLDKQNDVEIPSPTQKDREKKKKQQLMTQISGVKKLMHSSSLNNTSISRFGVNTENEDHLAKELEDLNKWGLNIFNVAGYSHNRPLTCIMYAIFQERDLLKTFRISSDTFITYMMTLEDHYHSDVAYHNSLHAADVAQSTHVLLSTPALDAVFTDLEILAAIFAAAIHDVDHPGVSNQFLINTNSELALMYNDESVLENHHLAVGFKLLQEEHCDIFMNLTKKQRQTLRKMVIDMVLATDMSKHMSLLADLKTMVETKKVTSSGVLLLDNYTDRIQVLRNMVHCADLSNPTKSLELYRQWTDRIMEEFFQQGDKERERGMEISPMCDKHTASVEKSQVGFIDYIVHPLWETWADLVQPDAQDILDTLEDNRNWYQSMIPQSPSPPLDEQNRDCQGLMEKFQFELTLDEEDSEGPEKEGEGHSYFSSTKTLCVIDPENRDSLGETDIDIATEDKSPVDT
T1 sequence (Q07343 whole entry, canonical isoform): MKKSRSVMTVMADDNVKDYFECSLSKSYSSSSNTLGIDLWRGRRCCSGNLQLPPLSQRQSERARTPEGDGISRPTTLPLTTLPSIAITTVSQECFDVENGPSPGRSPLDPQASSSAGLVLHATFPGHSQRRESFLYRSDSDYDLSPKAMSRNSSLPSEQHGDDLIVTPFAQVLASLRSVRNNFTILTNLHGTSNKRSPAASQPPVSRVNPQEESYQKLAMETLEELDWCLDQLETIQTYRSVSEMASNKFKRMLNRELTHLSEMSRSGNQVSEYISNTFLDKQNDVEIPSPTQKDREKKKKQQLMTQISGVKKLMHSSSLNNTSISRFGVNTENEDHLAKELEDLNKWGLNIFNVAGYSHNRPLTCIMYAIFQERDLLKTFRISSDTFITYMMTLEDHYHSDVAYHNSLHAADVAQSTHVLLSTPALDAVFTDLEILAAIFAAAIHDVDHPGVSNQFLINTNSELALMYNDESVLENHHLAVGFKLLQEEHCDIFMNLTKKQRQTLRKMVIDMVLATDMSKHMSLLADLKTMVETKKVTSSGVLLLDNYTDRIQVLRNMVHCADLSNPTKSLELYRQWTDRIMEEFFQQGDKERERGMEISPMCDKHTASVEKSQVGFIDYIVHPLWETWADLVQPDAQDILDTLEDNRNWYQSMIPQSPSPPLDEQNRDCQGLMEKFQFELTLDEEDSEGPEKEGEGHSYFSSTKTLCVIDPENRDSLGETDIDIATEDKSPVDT

In the case of `CNC(=O)c1nc(-c2ccc(Cl)c(F)c2)nn1CC(=O)NCc1cccc(F)c1` [Example 10, 3-(4-chloro-3-fluorophenyl)-1-{[(3-fluorobenzyl)carbamoyl]methyl}-N-methyl-1H-1,2,4-triazole-5-carboxamide], the activation at 30 µM on full-length human PDE4B1 was determined as 85.1%; on full-length human PDE4B2 (Protocol B), 23.3%.

Consider `CNC(=O)c1nc(-c2ccc(Cl)c(F)c2)nn1CC(=O)NCc1ccc2[nH]ncc2c1` [Example 28, 3-(4-chloro-3-fluorophenyl)-1-({[(1H-indazol-5-yl)methyl]carbamoyl}methyl)-N-methyl-1H-1,2,4-triazole-5-carboxamide], for which the activation at 30 µM was 101% on full-length human PDE4D5 (Protocol B) and -7.9% at full-length human PDE4B2 (Protocol B). Further, the “cyst formation in 3D culture of MDCK cells (in words)” value in the test with MDCK cells [1] is on record as “inhibition of cyst formation”.

As for `COC(=O)c1nc(-c2ccc(Cl)c(F)c2)nn1CC(=O)NCc1cccc(F)c1` [Example 1, Methyl 3-(4-chloro-3-fluorophenyl)-1-{[(3-fluorobenzyl)carbamoyl]methyl}-1H-1,2,4-triazole-5-carboxylate], the activation at 30 µM came to 105% on full-length human PDE4D5 (Protocol A) and 19.5% at full-length human PDE4B2 (Protocol A). Moreover, the “intracellular cAMP levels in MDCK cells (in words)” value in the test on MDCK cells [2] is recorded as “reduction in intracellular cAMP levels”.
